In the supplement of paper PMC10307832:

Assays:
Assay in all cases: relative viability (nuclei count vs DMSO), 5 days (fraction); higher = more cells survive
[1] = compound: N#CC[C@H](C1CCCC1)n1cc(-c2ncnc3[nH]ccc23)cn1 [Ruxolitinib] + Cc1nc(NC(=O)N2CCC[C@H]2C(N)=O)sc1-c1ccnc(C(C)(C)C(F)(F)F)c1 [Alpelisib] (partner 2 µM)
How it was run: (§1)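 Dosing by pin tool came one day after lung cancer cell lines were seeded in 1536-well plates, using either one drug or a fixed anchor-drug dose plus five library-drug doses (not always all listed) in √10 steps. After 5 days, nuclei were counted on 4× images. Relative viability is treated-well nuclei count divided by vehicle-well nuclei count, and values are medians of duplicate plates.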

[2] = compound: N#CC[C@H](C1CCCC1)n1cc(-c2ncnc3[nH]ccc23)cn1 [Ruxolitinib] + C[C@@H](Oc1cc(-c2cnn(C3CCNCC3)c2)cnc1N)c1c(Cl)ccc(F)c1Cl [Crizotinib] (partner 1 µM)
How it was run: as §1

[3] = compound: N#CC[C@H](C1CCCC1)n1cc(-c2ncnc3[nH]ccc23)cn1 [Ruxolitinib] + COc1cc2c(Oc3ccc(NC(=O)C4(C(=O)Nc5ccc(F)cc5)CC4)cc3F)ccnc2cc1OCCCN1CCOCC1 [Foretinib] (partner 0.25 µM)
How it was run: as §1

[4] = compound: N#CC[C@H](C1CCCC1)n1cc(-c2ncnc3[nH]ccc23)cn1 [Ruxolitinib] + COc1cccc2cc(-c3nc([C@H]4CC[C@H](C(=O)O)CC4)n4ncnc(N)c34)[nH]c12 [OSI-027] (partner 0.5 µM)
How it was run: as §1

Cell Line | relative viability ([1]; first compound 0.08 µM) | relative viability ([1]; first compound 0.253 µM) | relative viability ([1]; first compound 0.8 µM) | relative viability ([1]; first compound 2.53 µM) | relative viability ([1]; first compound 8 µM) | relative viability ([2]; first compound 0.08 µM) | relative viability ([2]; first compound 0.253 µM) | relative viability ([2]; first compound 0.8 µM) | relative viability ([2]; first compound 2.53 µM) | relative viability ([2]; first compound 8 µM) | relative viability ([3]; first compound 0.08 µM) | relative viability ([3]; first compound 0.253 µM) | relative viability ([3]; first compound 0.8 µM) | relative viability ([3]; first compound 2.53 µM) | relative viability ([3]; first compound 8 µM) | relative viability ([4]; first compound 0.253 µM) | relative viability ([4]; first compound 0.8 µM) | relative viability ([4]; first compound 2.53 µM) | relative viability ([4]; first compound 8 µM) | relative viability ([4]; first compound 0.08 µM)
NCI-H3122 | 0.807 | 0.786 | 0.851 | 0.556 | 0.617 | 0.332 | 0.269 | 0.282 | 0.312 | 0.282 | 0.942 | 0.873 | 1.01 | 0.881 | 0.948 | 0.296 | 1.22 | 0.51 | 0.569 | 
PC-3 [JPC-3] | 0.763 | 1.05 | 1.1 | 0.991 | 0.932 | 0.886 | 1 | 0.998 | 1.01 | 0.874 | 0.859 | 1.01 | 0.975 | 0.957 | 0.871 | 0.702 | 0.811 | 0.704 | 0.672 | 0.756
PC-14 |  | 0.868 | 0.902 | 0.879 | 0.78 |  | 0.949 | 0.883 | 0.819 | 0.655 |  | 0.947 | 0.971 | 0.875 | 0.828 | 0.949 | 1.22 | 0.608 | 0.543 | 
RERF-LC-KJ | 0.811 | 0.775 | 0.892 | 0.877 | 0.771 | 0.863 | 0.868 | 0.864 | 0.827 | 0.687 | 0.862 | 0.95 | 0.914 | 0.921 | 0.927 | 0.442 | 0.685 | 0.537 | 0.536 | 0.56
SK-LU-1 | 1.18 | 1.05 | 1.11 | 0.823 | 0.623 | 1.01 | 1 | 1.08 | 0.847 | 0.584 | 0.813 | 0.806 | 0.876 | 0.75 | 0.676 | 0.36 | 0.393 | 0.295 | 0.291 | 0.413
SK-MES-1 | 0.984 | 0.878 | 0.986 | 0.722 | 0.795 | 1.03 | 0.984 | 1.02 | 0.925 | 0.702 | 0.927 | 0.714 | 0.955 | 0.788 | 0.768 | 0.587 | 0.702 | 0.534 | 0.512 | 0.676
SW 1573 | 0.926 | 0.712 | 0.984 | 0.558 | 0.687 | 0.887 | 0.75 | 0.969 | 0.791 | 0.733 | 0.979 | 0.916 | 1.1 | 0.834 | 0.885 | 0.482 | 0.815 | 0.386 | 0.573 | 0.607
